The results in this text go back to patent publication EP2511272B1, “Synthetic analogues of abscisic acid with anti-inflammatory and insulin release stimulation effects on human cells” (Universita' degli Studi di Genova, priority 2011, dated 2012).

Series [1] relates to human granulocytes. The series can be described thus: Stability without extraction in HBSS in the presence of human granulocytes (HPLC-MS). It is filed as in vitro ADME. The conditions noted are these: for Stability (without extraction): Granulocytes in HBSS, 10 µM, 37 °C. The procedure:
Additionally, stability tests were carried out in water, in HBSS and in HBSS in the presence of human granulocytes at time 0, and after 1 and 2 hrs at 37 °C, and carrying out HPLC-MSS analysis without extracting the analyte of interest.
In order to test the compound prepared according to example 1 for stability in HBSS in the presence, or absence, of granulocytes, 1 x 10^8 cells were used in 2 ml of HBSS (with calcium and magnesium added) containing 10 µM of compound prepared according to example 1 at 37°C. Samples of 500 µl each were drawn at time 0, and after 1 and 2 hrs and the cells were separated by centrifugation at 200xg for 5 minutes; the supernatant was then recovered and directly analysed in HPLC-MS.
The HPLC-MS system used consists of an Agilent 1100 capillary chromatograph equipped with a diode array detector (DAD) and coupled with an Agilent 1100 series LC/MSD Trap mass spectometer with orthogonal electrospray source and a ionic-trap analyser.
The detection wavelength was 254 nm and the MS spectrum was recorded in negative ions mode in an m/z range of 50-300.
The amount of compound of example 1 in the extracts and supernatants was computed as the area of the peak under the extracted ion current m/z 279.3, normalized for the ionization efficiency of internal standard (hexadeuterated ABA) used for HPLC-MS analysis. Furthermore, the concentration was computed using the recovery rates obtained from the evaluation of counts per minute (cpm) of extracted [^3H]ABA.

The subject of series [2] is human granulocytes. Briefly: Cytotoxicity, CellTiter 96 AQueous One Solution assay. It is filed as cell-based. The conditions noted are these: 24 hrs.
In series [3] the test system is granulocytes. Briefly: Inhibition of ABA-induced chemotaxis (granulocyte migration, ChemoTx). It is filed as cell-based, human.

By inhibition is commonly meant the share of the control response that was lost under treatment. High values mean a strong effect, low ones a weak effect. As for `CC(=C/C(=O)O)/C=C/C1(O)C(C)(C)CC(=O)C2OC21C` (stereo not drawn) [Example 1, 2'α,3'α-dihydro-2'α,3'α-epoxyabscisic acid], the “Stability (without extraction)” value in series [1] (0 hr) is reported as 94%; in series [1] (1 h) it was 82%; in series [1] (2 hrs) it was 73%. In series [1] (phosphate buffer with human granulocytes, non-extracted samples), the degradation rate entry is “about 10 %/ hour”. For the same compound, the number of cells is reported as 151138 in series [2] (1 nM), 191138 in series [2] (10 nM), 132555 in series [2] (1 µM) and 175388 in series [2] (100 µM). The vitality % in series [2] (1 nM) was determined as 89%; in series [2] (10 nM) it was 100%; in series [2] (1 µM), 83%; in series [2] (100 µM) it was 96%. Also, in series [3] (ABA 1 µM + compound 10 nM), the “CI±SD (chemotactic index)” value turned out to be 1.26±0.07. For the same compound, testing at 0.01 µM in series [3] (Homo sapiens, migration towards ABA 1 µM, compound 10 nM) gave an inhibition of 57%.
